The subject of test [1] is FVB mice expressing luciferase in brain tissue. The test can be described thus: In vivo bioluminescence imaging in brains of FVB mice injected with AAV9-luc+ in the striatum. The protocol: (§1) FVB mice were injected with AAV9-luc+ in the brain striatum. Bioluminescence assays were performed approximately nine months after AAV injection. Each luciferin amide was diluted into PBS to the indicated concentration from a 50 mM DMSO stock solution and filtered (0.22 μm) prior to intraperitoneally injection (0.1 mL per mouse). Mice were anesthetized with isoflurane (2% in 1 L/min oxygen) and images acquired on a Xenogen IVIS 100 imaging system and analyzed with Living Image software.
Certain luciferin amides described herein were tested to determine whether they would image well in live mice. For these studies, FVB mice were injected with adeno-associated virus 9 (AAV9)-luciferase constructs into the brain striatum.
Bioluminescence imaging (BLI) in the brain is more challenging than imaging in the rest of the organism, in part because a luciferase substrate (i.e., a luciferin) must cross the blood-brain barrier. Therefore, the ability of a synthetic luciferin (i.e., Compound 9's corresponding luciferin (CycLuc1)) to allow bioluminescence imaging in these mice, as compared to the native firefly luciferase substrate (i.e., D-luciferin) was first tested. Specifically, each substrate was injected intraperitoneally (IP) in PBS at a volume of 0.1 mL, D-luciferin being at a concentration of 100 mM and CycLuc1 being at a concentration of 5 mM. […] CycLuc1 was then injected at a 320-fold lower dose (0.06 mL of 0.5 mM) than D-luciferin.
Specifically, Compound 9 (i.e., CycLuc1 amide) was injected at 0.5 mM in 0.5% DMSO/PBS (0.06 mL).
In this figure, mice in the top row were treated with luciferin amides in the amounts indicated in the figure, and the mice in the bottom row were the same mice that were imaged one day later using a standard dose of D-luciferin.

In test [2] the target is T1, FAAH (Mus musculus, UniProt O08914).
T1 construct: metabolized into CycLuc1 by endogenous FAAH activity; from tissue; host or cells: brain (striatum) of live FVB mice expressing AAV9-delivered luciferase
T1 sequence (O08914 1-579): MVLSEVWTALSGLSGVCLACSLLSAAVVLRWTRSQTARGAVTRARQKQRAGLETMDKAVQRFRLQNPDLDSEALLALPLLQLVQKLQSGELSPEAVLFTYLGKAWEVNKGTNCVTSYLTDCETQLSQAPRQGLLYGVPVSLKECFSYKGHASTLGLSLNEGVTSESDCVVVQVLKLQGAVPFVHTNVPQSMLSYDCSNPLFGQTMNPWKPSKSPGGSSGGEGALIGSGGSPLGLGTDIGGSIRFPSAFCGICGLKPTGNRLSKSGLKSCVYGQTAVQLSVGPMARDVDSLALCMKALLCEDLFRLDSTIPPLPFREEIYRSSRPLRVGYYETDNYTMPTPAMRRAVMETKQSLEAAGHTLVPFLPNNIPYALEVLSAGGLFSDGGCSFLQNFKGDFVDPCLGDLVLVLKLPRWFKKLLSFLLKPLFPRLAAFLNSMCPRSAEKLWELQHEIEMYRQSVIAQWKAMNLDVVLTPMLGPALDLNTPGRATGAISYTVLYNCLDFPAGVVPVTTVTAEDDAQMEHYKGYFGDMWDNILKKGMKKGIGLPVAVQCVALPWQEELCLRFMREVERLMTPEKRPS
The test can be described thus: In vivo FAAH inhibition assay with PF-3845. The arrangement: species or system mice. As to conditions: for total photon flux, average: 0.1 mM (0.1 mL) IP. The protocol:
as §1
Mice were injected intraperitoneally with 1 mg/mL of a specific FAAH inhibitor PF-3845 dissolved in 18:1:1 PBS:ethanol:emulphor (0.1 mL), or with an equal volume of 18:1:1 PBS:ethanol:emulphor control vehicle. Thirty minutes after injection, the mice were imaged as described above.
FAAH is highly expressed in most tissues, particularly in the brain. To determine whether the luciferin amides are cleaved exclusively by FAAH in the brain tissue, eight FVB mice expressing AAV9-luciferase in the striatum were divided into two groups: (1) four mice were injected IP with 1 mg/mL of a specific FAAH inhibitor PF-3845 dissolved in 18:1:1 PBS:ethanol:emulphor (0.1 mL), and (2) four mice were treated with an equal volume of 18:1:1 PBS:ethanol:emulphor control vehicle without PF-3845. After 30 minutes, one mouse from each group was IP injected with 5 mM CycLuc1 (i.e., Compound 9's corresponding luciferin) in PBS (0.1 mL), and three were injected with 0.1 mM Compound 5 in 0.2% DMSO/PBS (0.1 mL). The mice were imaged 10 minutes after substrate injection. Mice in the right panel were group (1) (i.e., treated with a FAAH inhibitor) and mice in the left panel were from group (2) (i.e., without being treated with a FAAH inhibitor).

Test [3] addresses T2, FAAH (Homo sapiens, UniProt O00519).
T2 construct: purchased Cayman Chemical
T2 sequence (O00519 1-579): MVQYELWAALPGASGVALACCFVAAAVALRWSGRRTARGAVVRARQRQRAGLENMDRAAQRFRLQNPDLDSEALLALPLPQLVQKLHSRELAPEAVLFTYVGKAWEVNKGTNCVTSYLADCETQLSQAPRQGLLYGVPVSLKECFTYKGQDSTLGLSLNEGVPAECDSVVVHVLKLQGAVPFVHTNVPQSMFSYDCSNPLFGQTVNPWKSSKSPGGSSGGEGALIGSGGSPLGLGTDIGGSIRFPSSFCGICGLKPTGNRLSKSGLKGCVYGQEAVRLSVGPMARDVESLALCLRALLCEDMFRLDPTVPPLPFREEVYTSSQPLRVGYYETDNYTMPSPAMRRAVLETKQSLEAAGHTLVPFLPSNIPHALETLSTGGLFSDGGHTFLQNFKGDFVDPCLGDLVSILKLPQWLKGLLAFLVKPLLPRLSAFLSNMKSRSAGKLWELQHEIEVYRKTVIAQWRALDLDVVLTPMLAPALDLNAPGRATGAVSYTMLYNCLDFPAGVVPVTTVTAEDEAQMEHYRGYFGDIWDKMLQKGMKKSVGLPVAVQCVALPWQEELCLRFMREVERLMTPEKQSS
Briefly: In vitro FAAH assay: luciferin amide treated with recombinant FAAH, then R218K luciferase, bioluminescence. The test is classed as biochemical. As to conditions: 50 μM luciferin amide; for increase in bioluminescence signal on addition of FAAH versus buffer: 10 minutes at room temperature, R218K luciferase 3 μg/mL; for effect of ten-fold dilution of FAAH on bioluminescent signal: FAAH vs FAAH 1:10, one hour at room temperature. The protocol: Recombinant FAAH, FAAH assay buffer, and FAAH inhibitors URB-597, PF-750, and PF-3845 were purchased from Cayman Chemical.
Bioluminescence assays were performed in either a Turner Veritas luminometer or a Xenogen IVIS-100 imaging system. For Veritas experiments, white 96-well plates were used (Costar 3912). For IVIS experiments, black 96-well plates were used (Costar 3915).
(§2) Luciferin amides (50 μM) were treated with FAAH and FAAH buffer (Cayman Chemical) in the presence or absence of 50 μM FAAH inhibitor URB-597 or 50 μM luciferase inhibitor 2-(4′-methoxyphenyl)benzothiazole. After 10 minutes at room temperature, R218K mutant firefly luciferase was added at a concentration of 3 μg/mL and bioluminescence was detected on a Turner Veritas luminometer.
Four luciferin amides (50 μM), i.e., Compounds 1, 9, 10, and 25, were treated with a buffer alone, a buffer containing FAAH, a buffer containing FAAH+50 μM URB-597 (i.e., a FAAH inhibitor), or a buffer containing FAAH+50 μM luciferase inhibitor 2-(4′-methoxyphenyl)benzothiazole. After 10 minutes at room temperature, R218K luciferase was added at a concentration of 3 μg/mL and bioluminescence was detected on a Turner Veritas.
(§3) Three luciferin amides (50 μM), i.e., Compounds 2, 9, and 25, were treated with a buffer alone, a buffer containing FAAH, a buffer containing FAAH 1:10 (i.e., a ten-fold dilution of FAAH), a buffer containing pig liver esterase (PLE), or a buffer containing PLE 1:10 (i.e., a ten-fold dilution of PLE). After one hour at room temperature, R218K luciferase was added at a concentration of 3 μg/mL and bioluminescence was detected on a Turner Veritas.

Test [4] addresses R218K mutant firefly luciferase (Photinus pyralis, UniProt P08659, R218K). Briefly: In vitro FAAH assay in presence of luciferase inhibitor 2-(4′-methoxyphenyl)benzothiazole. The test is classed as biochemical. To be noted: 50 μM luciferase inhibitor, 50 μM luciferin amide. The protocol: as §2
Four luciferin amides (50 μM), i.e., Compounds 1, 9, 10, and 25, were treated with a buffer alone, a buffer containing FAAH, a buffer containing FAAH+50 μM URB-597 (i.e., a FAAH inhibitor), or a buffer containing FAAH+50 μM luciferase inhibitor 2-(4′-methoxyphenyl)benzothiazole. After 10 minutes at room temperature, R218K luciferase was added at a concentration of 3 μg/mL and bioluminescence was detected on a Turner Veritas. […] These bioluminescence signals were inhibited by more than 100-fold by treatment with the FAAH inhibitor URB-597.

Test [5] concerns pig liver esterase (PLE). Briefly: Treatment of luciferin amides with pig liver esterase, then R218K luciferase, bioluminescence. The test is classed as biochemical. As to conditions: 50 μM luciferin amide, PLE and PLE 1:10, one hour at room temperature. The protocol: as §3
[6] abbreviates: 0.06 mL of 0.5 mM in 0.5% DMSO/PBS.

Molecules are shown by their SMILES.

Chain of R218K mutant firefly luciferase (P08659 whole entry R218K): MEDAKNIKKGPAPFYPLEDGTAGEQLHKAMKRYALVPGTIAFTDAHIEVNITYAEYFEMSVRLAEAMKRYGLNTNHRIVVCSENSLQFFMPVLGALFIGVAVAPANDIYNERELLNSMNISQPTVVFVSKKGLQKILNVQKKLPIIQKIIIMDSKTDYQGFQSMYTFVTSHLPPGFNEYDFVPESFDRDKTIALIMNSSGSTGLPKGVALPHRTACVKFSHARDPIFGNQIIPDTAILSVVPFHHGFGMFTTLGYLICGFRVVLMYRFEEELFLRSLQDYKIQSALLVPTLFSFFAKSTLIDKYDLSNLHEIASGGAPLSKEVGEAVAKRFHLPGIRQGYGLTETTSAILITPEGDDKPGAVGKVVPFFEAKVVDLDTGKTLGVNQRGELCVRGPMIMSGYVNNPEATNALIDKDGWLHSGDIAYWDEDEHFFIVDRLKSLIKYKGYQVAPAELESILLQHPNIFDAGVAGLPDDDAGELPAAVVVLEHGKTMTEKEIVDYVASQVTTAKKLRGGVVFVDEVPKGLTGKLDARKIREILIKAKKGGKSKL

Take `CC(C)Nc1ccc2nc(C3=N[C@@H](C(N)=O)CS3)sc2c1` [Compound 5, (S)-4,5-dihydro-2-(6-(isopropylamino)-benzo[d]thiazol-2-yl)thiazole-4-carboxamide]: the “Photon flux after treatment with luciferin analogs” value in test [1] (4 μM) came out at 2.97E+05 p/s; in test [1] (20 μM) it was 1.95E+06 p/s; in test [1] (100 μM) it was 7.84E+06 p/s; in test [1] (500 μM) it was 1.19E+07 p/s. Further, the “signal as share of the D-luciferin signal” value in test [1] (4 μM, 25,000-fold lower dose) is on record as around 30%. In addition, the “photon flux relative to standard 100 mM D-luciferin” value in test [1] (IP, 20 μM, 5000-fold lower dose) is recorded as “higher photon flux than the standard 100 mM D-luciferin”. For the same compound, the “bioluminescence signal higher than standard D-luciferin imaging conditions” value in test [1] (doses 200-fold and 1000-fold lower than standard D-luciferin dose) was determined as 5 fold. Further, the “total photon flux, average” value in test [2] (group (1) treated with PF-3845) is 4.4×10^4 p/s; in test [2] (group (2) vehicle without PF-3845) it was 1.3×10^7 p/s. In addition, the “change of light output by FAAH inhibitor PF-3845 (group 1 vs group 2)” value in test [2] (PF-3845 1 mg/mL (0.1 mL) IP 30 minutes before substrate) is “reduced by nearly three orders of magnitude”.

Consider `NC(=O)[C@H]1CSC(c2nc3ccc(O)cc3s2)=N1` [Compound 25, (S)-4,5-dihydro-2-(6-hydroxybenzothiazol-2-yl)thiazole-4-carboxamide], for which, in test [3], the “increase in bioluminescence signal on addition of FAAH versus buffer” value is on record as 269 fold and the “effect of ten-fold dilution of FAAH on bioluminescent signal” value (shortened to “effect of ten-fold dilution of FAAH”) is “corresponding reduction in the intensity of the bioluminescent signal”. In addition, the “inhibition of the signal by luciferase inhibitor 2-(4′-methoxyphenyl)benzothiazole” value in test [4] is 14.5 fold. Also, the “bioluminescence signal after treatment with PLE” value in test [5] is recorded as “failed to elicit a bioluminescence signal”. For the same compound, the “light emission in brains of live mice (qualitative)” value in test [1] (mouse, in vivo) is “relatively weak light emission”.

As to `CN(C)c1ccc2nc(C3=N[C@@H](C(N)=O)CS3)sc2c1` [Compound 2, (S)-2-(6-(dimethylamino)benzo[d]thiazol-2-yl)-4,5-dihydrothiazole-4-carboxamide], in test [3], the “effect of ten-fold dilution of FAAH” value is “corresponding reduction in the intensity of the bioluminescent signal”. The “bioluminescence signal after treatment with PLE” value in test [5] was “failed to elicit a bioluminescence signal”.

Take `NC(=O)[C@H]1CSC(c2nc3cc4c(cc3s2)NCC4)=N1` [Compound 9, (S)-4,5-dihydro-2-(6,7-dihydro-5H-thiazolo[4,5-f]indol-2-yl)thiazole-4-carboxamide]: in test [3], the “increase in bioluminescence signal on addition of FAAH versus buffer” value is listed as 8972 fold and the “effect of ten-fold dilution of FAAH” value is “corresponding reduction in the intensity of the bioluminescent signal”. In addition, the “inhibition of the signal by luciferase inhibitor 2-(4′-methoxyphenyl)benzothiazole” value in test [4] is recorded as 2.3 fold. Besides, in test [5], the “bioluminescence signal after treatment with PLE” value is “failed to elicit a bioluminescence signal”. Besides, in test [1] (setting [6]), the “light emission relative to an equivalent dose of CycLuc1” value is given as “exceeded that obtained from an equivalent dose of CycLuc1 itself” and the “light emission relative to the 5 mM CycLuc1 dose” value is recorded as “nearly equaling to the light emission obtained from the 5 mM CycLuc1 dose”. Moreover, the “brain bioluminescence signal relative to D-luciferin (0.1 mL of 100 mM)” value in test [1] (0.06 mL of 0.5 mM, 320-fold lower dose) was “over an order of magnitude greater”.

The values are drawn from patent US9814787B2, “Luciferin amides” (University of Massachusetts, priority 2013, dated 2017).
